Experimental data reported in patent US20030023104A1, “Therapeutic compound - fatty acid conjugates” (COMMONWEALTH SCIENTIFIC AND INDUSTRIAL RESEARCH ORGANISATION, priority 1995, published 2003).
Several values for one entry are separate records, joined by “and”; a condition that tells them apart may be missing. Equal values may be shown once.

How the values were obtained:
[1] = tested on: UVB induced immunosuppression; assay: Contact Hypersensitivity Assay (oxazolone, net ear swelling); type: in vivo, mice; settings: total 3 MED UVB
Source text: The assay used the method described in “Current Protocols in Immunology” (Vol 1, Section 4.2 Eds Coligan et al. (1991) NIH). The sensitiser was Oxazalone. Briefly this method was as follows:
UVB Radiation. Mice were irradiated with a single FL40SE UVB fluorescent tube (Oliphant) in a reflective batten, providing […] UVB radiation measured at target distance using an International Light IL1700 radiometer with a UVB detector sensitive between 250-315 nm. The mice received 0.1179 J/cm^2 UVB radiation, constituting 1 minimal erythemal dose (MED) as previously ascertained, on each of 3 consecutive days, being exposed unrestrained with the wire cage tops removed.
Induction of Systemic Contact Hypersensitivity. Test mice were exposed on the dorsum to 1 MED UVB radiation (or no UVB radiation) at the same hour on days 1, 2 and 3. On days 8 and 9, the mice (irradiated and non-irradiated) were sensitized by topical application to the abdominal skin of 0.1 ml of 3% (w/v) oxazolone (Sigma Chemical Co., St Louis, Mo.) freshly prepared in ethanol. On day 15, the pre-challenge ear thickness was measured using the spring micrometer, and the mice were then challenged by the application of 5 ul freshly prepared 3% oxazolone/ethanol solution to both surfaces of each pinna. Ear thickness was again measured repeatedly between 16-24 hours, and the maximum ear thickness was recorded. The net ear swelling was calculated as the difference between the average pre-challenge and the average post-challenge ear thickness for each treatment group. Statistical significance of the differences in net ear swelling between treatment groups was assessed with Student's t test.
The mice were painted with vehicle, 0.5 mg/mouse HC, 0.5 mg/mouse HC-Suc-GTP2. 1 mg/mouse 17-b HC-Suc-GTP3 or 17-b HC within 10 minutes post UVB exposure. A total of 3 MED of unshielded UVB was used. (Table 3)

[2] = tested on: UVB induced oedema; assay: UVB erythema assay (net skin fold thickness); type: in vivo, Skh-1 hairless albino female mice; settings: for activity equivalent to % of the hydrocortisone activity in protecting against UVB induced oedema: 0.5 mg/mouse, applied at Day 0, post UVB exposure
[3] = tested on: JURKAT cells (acute T cell human leukemia); settings: for IC50 / activity (cytotoxicity) when delivered to cultures in ethanol: JURKAT; for IC50: drugs coated onto plates (Table 9); for activity (cytotoxicity) when delivered to cultures in ethanol: ethanol delivery
Description: The cytotoxicity of chlorambucil and chlorambucil fatty acid conjugates (CGTP1. P2 and P3) were tested in vitro with JURKAT cells (acute T cell human leukemia). Cells were incubated with drug and viability was determined by a colourmetric proliferation test. Cytotoxicity towards other cells lines was also tested (PC3 human prostate cancer cells, B16 mouse melanoma cells and human peripheral blood mononuclear cells).
JURKAT cells were seeded into 96-well plates at a density of 1.6×10^4 cells/200 μl complete RPMI ± drug and cultured for 64 h. A 1:3 split of confluent PC3 cells in a 75 cm^2 flask were seeded into a 96-well plate and cultured for 48 h in complete RPMI. Media was removed and complete RPMI ± drug was added to wells. Cells were further cultured for 72 h.
i) Ethanol. Drugs were dissolved in ethanol and added to culture media. The final concentration of ethanol in media was no greater than 1% (v/v). This delivery was used for experiments with JURKAT, PBMC, PC3 and B16 cell types.
ii) Coating of plates. Drugs were dissolved in ethanol and aliquots (up to 40 μl) were added to 90% (v/v) isopropanol. Solution (50 μl) was then added to wells of a 96-well plate and the solvent evaporated by heating at 37° C. Media ± cells was then added. This delivery was used for some experiments with JURKAT cells.
Viability was determined using the MTS assay (CellTiter 96TM AQueous Non-Radioactive Cell Proliferation Assay) from Promega. Reagent (40 μl) was added to each well and absorbance values at 490 nm were determined 1 to 4 h later. The effect of drug on cell viability was compared to cultures set up containing no drug (100% viability). Wells containing no cells were used to control for background absorbance (0% viability). Each concentration was tested in at least 3 wells. Concentrations necessary to cause a 50% inhibition of cellular growth of control cells (IC50) were calculated by linear regression.

[4] = tested on: HIV-I U4550; assay: Anti HIV activity, Ag gp120 production in infected JM cells; type: cell-based; settings: JM cells infected with HIV-I U4550, 5 days; read-out: EC50 (concentration which reduces Ag gp120 by 50% in infected cell cultures)
Description: (§1) The anti-HIV activities of AZT-Suc-GTP1 and AZT-Suc-GTP2 were also tested. Infected cells were incubated for 5 days with compound. Compounds were dissolved in DMSO and 5-fold dilutions were used. The following parameters were measured: syncytia formation, virus antigen gp120 production, cell survival. Cytotoxicity is also measured in uninfected cells.
(§2) JM (semi mature human T-cell from lymphoblastoid leukemia) infected with HIV-I U4550
EC50=concentration which reduces Ag gp120by 50% in infected cell cultures.

[5] = tested on: JM (semi mature human T-cell from lymphoblastoid leukemia); assay: Cell growth (cytotoxicity) in JM cells; type: cell-based; settings: 5 days, read-out: IC50 (concentration of drug which reduces cell growth by 50%)
Description: as §1, §2
IC50=concentration of drug which reduces cell growth by 50%.

[6] = tested on: B16 melanoma cells; assay: Tumour Cytotoxicity Model (B16 melanoma in C57 mice); type: in vivo, C57 black mice; parameters: Mean (standard error) of B16 tumour volume adjusted for the variation in initial volume: scale not given here; settings: for Mean (standard error) of B16 tumour volume adjusted for the variation in initial volume: statistically modified tumour volume; for B16 Tumour Volume: individual mice
Description: Groups of C57 black mice were given an initiation dose of 2×10^5 B16 melanoma cells as an intradermal injection. The cells were suspended in MEM without serum. The abdomen was clipped and 100 μl of cells + MEM was injected. […] The tumours were measured with a micrometer and photographed just prior to the injection of drug (day 8-10).
The cytotoxic drugs and their fatty acid conjugates were dissolved or suspended in 4:1 soy bean oil:ethyl oleate. A 10 mg/ml or a 20 mg/ml solution of each parent drug or the fatty acid conjugate made to the same molar concentration as the parent drug was then injected into the same region as the tumour at a dose of 0.5 mg or 1 mg. The tumours were then photographed, measured and re-injected every two to three days.

[7] = 1% (1 mg/mouse) painted within 10 minutes post UVB exposure
[8] = 0.5 mg/mouse topical, applied Day 0 after UV exposure, 2MED UVB
[9] = 0.5 mg/mouse topical, applied Day −3 (3 days prior to UV exposure), 2MED UVB
[10] = 0.5% (0.5 mg/mouse) painted within 10 minutes post UVB exposure
[11] = 0.5 mg/mouse topical in ethanol, applied Day −5 (5 days prior to UV exposure), 2MED UVB, measured 24 h
[12] = 1 mg/mouse (1% w/v) topical, applied Day 0 after UV exposure
[13] = 1 mg/mouse (1% w/v) topical, applied Day −3

CCCCCCCCCCCCCCCC(=O)OCC(COC(=O)CCCCCCCCCCCCCCC)(COC(=O)CCCCCCCCCCCCCCC)NC(=O)CNC(=O)CCC(=O)OCC(=O)[C@@]1(O)CC[C@H]2[C@@H]3CCC4=CC(=O)CC[C@]4(C)[C@H]3[C@@H](O)C[C@@]21C [17-b HC-Suc-GTP3, 17-b Hydrocortisone-21-Suc-Gly-Tris-Tripalmitate]
Net Ear Swelling [1, 7]: 32.8 10^−2 mm | Mean Net Skin Fold Thickness [2, 8]: 42.7 ± 13.7 10^−2 mm | Mean Net Skin Fold Thickness [2, 9]: 90.7 ± 14.8 10^−2 mm | activity equivalent to % of the hydrocortisone activity in protecting against UVB induced oedema [2]: approximately 50%

CCCCCCCCCCCCCCCC(=O)OCC(CO)(COC(=O)CCCCCCCCCCCCCCC)NC(=O)CNC(=O)CCC(=O)OCC(=O)C1(O)CCC2C3CCC4=CC(=O)CCC4(C)C3C(O)CC21C (stereo not drawn) [HC-Suc-GTP2, Hydrocortisone-Suc-Gly-Tris-Dipalmitate]
Net Ear Swelling [1, 10]: 29.8 10^−2 mm | Mean Net Skin Fold Thickness [2, 11]: 104.2 ± 14.7 10^−2 mm | Mean Net Skin Fold Thickness [2, 8]: 60.6 ± 8.6 10^−2 mm | Mean Net Skin Fold Thickness [2, 9]: 94.3 ± 10.3 10^−2 mm | activity equivalent to % of the hydrocortisone activity in protecting against UVB induced oedema [2]: approximately 50% | Mean Net Skin Fold Thickness [2, 12]: 57.5 ± 10.9 | Mean Net Skin Fold Thickness [2, 13]: 60.8 ± 8.8

CCCC(=O)O[C@]1(C(=O)CO)CC[C@H]2[C@@H]3CCC4=CC(=O)CC[C@]4(C)[C@H]3[C@@H](O)C[C@@]21C [17b-Hydrocortisone, 17-Butyrate-Hydrocortisone, reference compound]
Net Ear Swelling [1, 7]: 38.6 10^−2 mm

CCCCCCCCCCCCCCCC(=O)OCC(CO)(CO)NC(=O)CN [GTP1, Glycine-Tris-Monopalmitate, reference compound]
cytotoxicity to JURKAT cells (in words) [3]: no activity

O=c1[nH]cnc2c1ncn2[C@H]1CC[C@@H](CO)O1 [ddI, reference compound]
EC50 [4]: 1 µM | IC50 [5]: > 100 µM

CCCCCCCCCCCCCCCC(=O)OCC(CO)(COC(=O)CCCCCCCCCCCCCCC)NC(=O)CNC(=O)CCCc1ccc(N(CCCl)CCCl)cc1 [CGTP2]
IC50 [3]: 17.7 µM | activity (cytotoxicity) when delivered to cultures in ethanol [3]: not observed | difference in tumour volume from the Vehicle group (95% level) ([6]; 0.5 mg and 1.0 mg groups): significant difference | Mean (standard error) of B16 tumour volume adjusted for the variation in initial volume ([6]; 13/11/95, 0.5 mg): 2.39 (0.523) | Mean (standard error) of B16 tumour volume adjusted for the variation in initial volume ([6]; 13/11/95, 1.0 mg): 2.58 (0.523) | Mean (standard error) of B16 tumour volume adjusted for the variation in initial volume ([6]; 15/11/95, 0.5 mg): 4.07 (0.881) | Mean (standard error) of B16 tumour volume adjusted for the variation in initial volume ([6]; 15/11/95, 1.0 mg): 3.89 (0.819) | Mean (standard error) of B16 tumour volume adjusted for the variation in initial volume ([6]; 16/11/95, 0.5 mg): 4.84 (1.06) | Mean (standard error) of B16 tumour volume adjusted for the variation in initial volume ([6]; 16/11/95, 1.0 mg): 4.23 (0.98) | Mean (standard error) of B16 tumour volume adjusted for the variation in initial volume ([6]; 17/11/95, 0.5 mg): 4.90 (1.28) | Mean (standard error) of B16 tumour volume adjusted for the variation in initial volume ([6]; 17/11/95, 1.0 mg): 4.84 (1.19) | B16 Tumour Volume ([6]; Day 1, drug dose 0.5 mg injected at tumour region): 0.5 mm^2 and 1.0 mm^2 and 2.7 mm^2 | B16 Tumour Volume ([6]; Day 1, drug dose 0.5 mg injected at tumour region, listed as CCTP2): 14.1 mm^2 | B16 Tumour Volume ([6]; Day 1, drug dose 1.0 mg): 8.2 mm^2 and 38.3 mm^2 | B16 Tumour Volume ([6]; Day 1, drug dose 1.0 mg, listed as CCTP2): 5 mm^2 | B16 Tumour Volume ([6]; Day 3, drug dose 0.5 mg): 0.3 mm^2 and 1 mm^2 and 0 mm^2 | B16 Tumour Volume ([6]; Day 3, drug dose 0.5 mg, listed as CCTP2): 27.4 mm^2 | B16 Tumour Volume ([6]; Day 3, drug dose 1.0 mg): 32.7 mm^2 and 73.5 mm^2 | B16 Tumour Volume ([6]; Day 3, drug dose 1.0 mg, listed as CCTP2): 0 mm^2 and 7.7 mm^2 | B16 Tumour Volume ([6]; Day 5, drug dose 0.5 mg): 11.8 mm^2 and 19.1 mm^2 and 0.0 mm^2 | B16 Tumour Volume ([6]; Day 5, drug dose 0.5 mg, listed as CCTP2): 82.8 mm^2 | B16 Tumour Volume ([6]; Day 5, drug dose 1.0 mg): 111.9 mm^2 and 174.1 mm^2 | B16 Tumour Volume ([6]; Day 5, drug dose 1.0 mg, listed as CCTP2): 0 mm^2 and 38.3 mm^2 | B16 Tumour Volume ([6]; Day 6, drug dose 0.5 mg): 19.8 mm^2 and 13.6 mm^2 and 0 mm^2 | B16 Tumour Volume ([6]; Day 6, drug dose 0.5 mg, listed as CCTP2): 167.4 mm^2 | B16 Tumour Volume ([6]; Day 6, drug dose 1.0 mg): 108.4 mm^2 and 240.3 mm^2 | B16 Tumour Volume ([6]; Day 6, drug dose 1.0 mg, listed as CCTP2): 0 mm^2 and 61.6 mm^2 | B16 Tumour Volume ([6]; Day 7, drug dose 0.5 mg): 21.8 mm^2 and 35.1 mm^2 and 0 mm^2 | B16 Tumour Volume ([6]; Day 7, drug dose 0.5 mg, listed as CCTP2): 152.8 mm^2 | B16 Tumour Volume ([6]; Day 7, drug dose 1.0 mg): 254.1 mm^2 and 215.0 mm^2 | B16 Tumour Volume ([6]; Day 7, drug dose 1.0 mg, listed as CCTP2): 0 mm^2 and 92.6 mm^2

C[C@]12CCC(=O)C=C1CC[C@@H]1[C@@H]2[C@@H](O)C[C@@]2(C)[C@H]1CC[C@]2(O)C(=O)CO [Hydrocortisone, hydrocortisone (cortisol or 17 hydroxy corticosterone), reference compound]
Net Ear Swelling [1, 10]: 32.0 10^−2 mm | protection from erythema and oedema ([2]; 0.5 mg/mouse topical in ethanol after 2 MED UVB, 24 h): ~100% | Mean Net Skin Fold Thickness [2, 11]: 102.7 ± 12.1 10^−2 mm | Mean Net Skin Fold Thickness [2, 8]: 10.4 ± 8.19 10^−2 mm | Mean Net Skin Fold Thickness [2, 9]: 100.9 ± 7.3 10^−2 mm | Mean Net Skin Fold Thickness [2, 12]: 7.9 ± 4.4 | Mean Net Skin Fold Thickness [2, 13]: 62.9 ± 4.0 | Mean Net Skin Fold Thickness ([2]; 1 mg/mouse (1% w/v) topical, applied Day −5): 108.3 ± 5.1

CCCCCCCCCCCCCCCC(=O)OCC(COC(=O)CCCCCCCCCCCCCCC)(COC(=O)CCCCCCCCCCCCCCC)NC(=O)CNC(=O)CCCc1ccc(N(CCCl)CCCl)cc1 [CGTP3, Chlorambucil-Gly-Tris-Tripalmitate]
IC50 [3]: 30 µM | activity (cytotoxicity) when delivered to cultures in ethanol [3]: not observed
